“And” between values parts separate entries of the source, which are not always exact repeats. Identical values can stand only once. Marks after values point to notes of the source that are not given here.
What was measured:
[1] = Caco-2 monolayer transport (bioavailability) study, AB and BA directions; type: in vitro ADME, Homo sapiens; conditions: human
How it was run: (§1)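 Grape skin extract in HBSS (15 or 22 mg/mL) applied to 21-day Caco-2 monolayers (TEER ≥300 Ω cm²) in AB and BA directions; acceptor samples quantified per polyphenol by HPLC-UV. Papp from steady-state flux over 1.12 cm², efflux ratio as Papp(BA)/Papp(AB), plus transport efficiency (C/C0).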

Caco-2 cell monolayer = test: as above; type: in vitro ADME, Homo sapiens; conditions: for reduction in concentration on the apical (donor) side / reduction in concentration on the basolateral (donor) side: 0 to 180 min; for TE (%) transport efficiency: after 180 min
How it was run: as §1

[2] = AB experiment, S1 (15 mg/mL GSE)
[3] = AB experiment, S2 (22 mg/mL GSE)
[4] = AB experiment, acceptor side, S1 (15 mg/mL GSE)
[5] = AB experiment, acceptor side, S2 (22 mg/mL GSE)
[6] = AB experiment, donor side, S1 (15 mg/mL GSE)
[7] = AB experiment, donor side, S2 (22 mg/mL GSE)
[8] = BA experiment, S1 (15 mg/mL GSE)
[9] = BA experiment, S2 (22 mg/mL GSE)
[10] = BA experiment, acceptor side, S1 (15 mg/mL GSE)
[11] = BA experiment, acceptor side, S2 (22 mg/mL GSE)
[12] = BA experiment, donor side, S1 (15 mg/mL GSE)
[13] = BA experiment, donor side, S2 (22 mg/mL GSE)

efflux ratio at 180 min, 15 mg/mL ([1]; Caco-2, Papp (BA)/Papp (AB), S1 (15 mg/mL GSE), read-out: ER (efflux ratio)): 1.3
efflux ratio at 180 min, 22 mg/mL ([1]; Caco-2, Papp (BA)/Papp (AB), S2 (22 mg/mL GSE), read-out: ER (efflux ratio)): 1.4
efflux ratio at 180 min ([1]; Caco-2, text statement, S1 and S2): > 1
Papp A→B at 180 min, 15 mg/mL ([1]; Caco-2, apical to basolateral, S1 (15 mg/mL GSE)): 74 ± 3 ×10⁻⁶ cm/s
Papp A→B at 180 min, 22 mg/mL ([1]; Caco-2, apical to basolateral, S2 (22 mg/mL GSE)): 51 ± 2 ×10⁻⁶ cm/s
Papp B→A at 180 min, 15 mg/mL ([1]; Caco-2, basolateral to apical, S1 (15 mg/mL GSE)): 93 ± 7 ×10⁻⁶ cm/s
Papp B→A at 180 min, 22 mg/mL ([1]; Caco-2, basolateral to apical, S2 (22 mg/mL GSE)): 73 ± 8 ×10⁻⁶ cm/s
reduction in concentration on the apical (donor) side (Caco-2 cell monolayer; [2]): 59 ± 4%
TE (%) transport efficiency (Caco-2 cell monolayer; [2]): 7 ± 1%
reduction in concentration on the apical (donor) side (Caco-2 cell monolayer; [3]): 44.1 ± 0.7%
TE (%) transport efficiency (Caco-2 cell monolayer; [3]): 4.4 ± 0.5% and 4.4 ± 0.4%
Basolateral Side 75 min (Caco-2 cell monolayer; [4]): 0.06 ± 0.01 ^b mg/L
Basolateral Side 90 min (Caco-2 cell monolayer; [4]): 0.06 ± 0.01 ^b,c mg/L
Basolateral Side 115 min (Caco-2 cell monolayer; [4]): 0.06 ± 0.01 ^b,c mg/L
Basolateral Side 180 min (Caco-2 cell monolayer; [4]): 0.07 ± 0.01 ^c mg/L
Basolateral Side 75 min (Caco-2 cell monolayer; [5]): 0.07 ± 0.01 ^b mg/L
Basolateral Side 90 min (Caco-2 cell monolayer; [5]): 0.07 ± 0.01 ^b,c mg/L
Basolateral Side 115 min (Caco-2 cell monolayer; [5]): 0.08 ± 0.01 ^b mg/L
Basolateral Side 180 min (Caco-2 cell monolayer; [5]): 0.08 ± 0.01 ^b mg/L
Apical Side 0 min (Caco-2 cell monolayer; [6]): 1.04 ± 0.08 mg/L and 1.04 ± 0.08 ^a mg/L
Apical Side 75 min (Caco-2 cell monolayer; [6]): 0.84 ± 0.07 ^b mg/L
Apical Side 90 min (Caco-2 cell monolayer; [6]): 0.67 ± 0.07 ^c mg/L
Apical Side 115 min (Caco-2 cell monolayer; [6]): 0.54 ± 0.07 ^d mg/L
Apical Side 180 min (Caco-2 cell monolayer; [6]): 0.43 ± 0.07 mg/L and 0.43 ± 0.07 ^d mg/L
Apical Side 0 min (Caco-2 cell monolayer; [7]): 1.82 ± 0.03 mg/L and 1.82 ± 0.03 ^a mg/L
Apical Side 75 min (Caco-2 cell monolayer; [7]): 1.54 ± 0.03 ^b mg/L
Apical Side 90 min (Caco-2 cell monolayer; [7]): 1.37 ± 0.02 ^c mg/L
Apical Side 115 min (Caco-2 cell monolayer; [7]): 1.16 ± 0.02 ^d mg/L
Apical Side 180 min (Caco-2 cell monolayer; [7]): 1.01 ± 0.01 mg/L and 1.01 ± 0.01 ^c mg/L
detection at the acceptor side (Caco-2 cell monolayer; AB experiments, basolateral side): detected
reduction in concentration on the basolateral (donor) side (Caco-2 cell monolayer; [8]): 43.5 ± 0.4%
TE (%) transport efficiency (Caco-2 cell monolayer; [8]): 11.2 ± 0.8%
reduction in concentration on the basolateral (donor) side (Caco-2 cell monolayer; [9]): 22.6 ± 0.8%
TE (%) transport efficiency (Caco-2 cell monolayer; [9]): 8.7 ± 0.9%
Apical Side 75 min (Caco-2 cell monolayer; [10]): 0.08 ± 0.01 ^b mg/L
Apical Side 90 min (Caco-2 cell monolayer; [10]): 0.09 ± 0.01 ^c mg/L
Apical Side 115 min (Caco-2 cell monolayer; [10]): 0.10 ± 0.01 ^d mg/L
Apical Side 180 min (Caco-2 cell monolayer; [10]): 0.12 ± 0.01 ^c mg/L
Apical Side 75 min (Caco-2 cell monolayer; [11]): 0.08 ± 0.01 ^a,b mg/L
Apical Side 90 min (Caco-2 cell monolayer; [11]): 0.10 ± 0.01 ^a,b,c mg/L
Apical Side 115 min (Caco-2 cell monolayer; [11]): 0.11 ± 0.01 ^b,c mg/L
Apical Side 180 min (Caco-2 cell monolayer; [11]): 0.12 ± 0.01 ^c mg/L
Basolateral Side 0 min (Caco-2 cell monolayer; [12]): 1.04 ± 0.03 ^a mg/L
Basolateral Side 75 min (Caco-2 cell monolayer; [12]): 0.91 ± 0.02 ^b mg/L
Basolateral Side 90 min (Caco-2 cell monolayer; [12]): 0.80 ± 0.02 ^c mg/L
Basolateral Side 115 min (Caco-2 cell monolayer; [12]): 0.70 ± 0.02 ^c,d mg/L
Basolateral Side 180 min (Caco-2 cell monolayer; [12]): 0.59 ± 0.02 ^c mg/L
Basolateral Side 0 min (Caco-2 cell monolayer; [13]): 1.4 ± 0.1 ^a mg/L
Basolateral Side 75 min (Caco-2 cell monolayer; [13]): 1.3 ± 0.1 ^b mg/L
Basolateral Side 90 min (Caco-2 cell monolayer; [13]): 1.23 ± 0.09 ^c mg/L
Basolateral Side 115 min (Caco-2 cell monolayer; [13]): 1.15 ± 0.08 ^d mg/L
Basolateral Side 180 min (Caco-2 cell monolayer; [13]): 1.08 ± 0.08 ^c mg/L
SMILES: O=C(/C=C/c1ccc(O)c(O)c1)O[C@@H](C(=O)O)[C@@H](O)C(=O)O [CA, caftaric acid]
